Source: US6046331A, “Imidazolones and their use in treating benign prostatic hyperplasia and other disorders” (Synaptic Pharmaceutical Corporation, priority 1998, dated 2000)

Key:
human α1b receptor = biological target: T1, human α1b receptor (Homo sapiens, UniProt P35368); test: Radioligand binding ([^3 H]prazosin) at cloned human α1b receptor; conditions: LM(tk-) cell membranes, read-out: hα1b Ki
T1 construct: The entire coding region of α1b (1563 bp); expressed in transfected cells; host or cells: LM(tk-) mouse fibroblast line L-α1B, ATCC CR 11139
T1 sequence (P35368 1-520): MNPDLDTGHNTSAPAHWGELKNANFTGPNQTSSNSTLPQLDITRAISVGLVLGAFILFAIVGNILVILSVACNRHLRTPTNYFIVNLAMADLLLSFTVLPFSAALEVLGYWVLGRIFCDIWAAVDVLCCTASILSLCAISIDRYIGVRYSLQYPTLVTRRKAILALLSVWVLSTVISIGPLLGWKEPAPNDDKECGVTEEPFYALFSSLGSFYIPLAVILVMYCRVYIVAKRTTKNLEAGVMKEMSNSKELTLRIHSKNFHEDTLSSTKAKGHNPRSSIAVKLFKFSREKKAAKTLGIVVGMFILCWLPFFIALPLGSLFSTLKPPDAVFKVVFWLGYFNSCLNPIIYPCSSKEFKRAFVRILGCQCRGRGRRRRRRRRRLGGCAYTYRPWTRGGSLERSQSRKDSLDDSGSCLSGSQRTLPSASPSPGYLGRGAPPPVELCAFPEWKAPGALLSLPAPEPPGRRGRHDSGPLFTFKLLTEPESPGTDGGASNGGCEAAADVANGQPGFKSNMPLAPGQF
Protocol: (§1) Binding affinities were measured for selected compounds of the invention at six cloned human α1 and α2 receptor subtypes, as well as at the L-type calcium channel. The protocols for these experiments are given below.
(§2) The activity of compounds at the different human receptors was determined in vitro using cultured cell lines that selectively express the receptor of interest. These cell lines were prepared by transfecting the cloned cDNA or cloned genomic DNA or constructs containing both genomic DNA and cDNA encoding the human α-adrenergic receptors as follows:
α1b Human Adrenergic Receptor: The entire coding region of α1b (1563 bp), including 200 base pairs and 5' untranslated sequence (5' UT) and 600 bp of 3' untranslated sequence (3' UT), was cloned into the EcoRI site of pCEXV-3 eukaryotic expression vector. The construct involved ligating the full-length containing EcoRI brainstem cDNA fragment from λ ZapII into the expression vector. Stable cell lines were selected as described above. The cell line used herein was designated L-α1B and was deposited with the American Type Culture Collection, 12301 Parklawn Drive, Rockville, Md. 20852, U.S.A. under the provisions of the Budapest Treaty for the International Recognition of the Deposit of Microorganisms for the Purposes of Patent Procedure. The cell line L-α1B was accorded ATCC Accession No. CR 11139, on Sep. 29, 1992.
(§3) Radioligand Binding Assays for α1 receptors:
(§4) Transfected cells from culture flasks were scraped into 5 ml of 5 mM Tris-HCl, 5 mM EDTA, pH 7.5, and lysed by sonication. The cell lysates were centrifuged at 1000 rpm for 5 min at 4° C., and the supernatant was centrifuged at 30,000× g for 20 min at 4° C. The pellet was suspended in 50 mM Tris-HCl, 1 mM MgCl2, and 0.1% ascorbic acid at pH 7.5. Binding of the α1 antagonist [^3 H]prazosin (0.5 nM, specific activity 76.2 Ci/mmol) to membrane preparations of LM(tk-) cells was done in a final volume of 0.25 ml and incubated at 37° C. for 20 min. Nonspecific binding was determined in the presence of […] phentolamine. The reaction was stopped by filtration through GF/B filters using a cell harvester. Inhibition experiments, routinely consisting of 7 concentrations of the tested compounds, were analyzed using a non-linear regression curve-fitting computer program to obtain Ki values.
(§5) The compounds described above were assayed using cloned human alpha adrenergic receptors. […] The binding affinities of several compounds are illustrated in the following table.
(§6) Binding affinities of selected compounds of the present invention at cloned human α1d, α1b and α1a receptors. (h=human)

human α1a receptor = biological target: T2, human α1a receptor (Homo sapiens, UniProt P35348); test: Radioligand binding ([^3 H]prazosin) at cloned human α1a receptor; conditions: LM(tk-) cell membranes, read-out: hα1a Ki
T2 construct: The entire coding region of α1a (1401 bp); expressed in transfected cells; host or cells: LM(tk-) mouse fibroblast line L-α1C (old nomenclature), ATCC CR 11140
T2 sequence (P35348 1-466): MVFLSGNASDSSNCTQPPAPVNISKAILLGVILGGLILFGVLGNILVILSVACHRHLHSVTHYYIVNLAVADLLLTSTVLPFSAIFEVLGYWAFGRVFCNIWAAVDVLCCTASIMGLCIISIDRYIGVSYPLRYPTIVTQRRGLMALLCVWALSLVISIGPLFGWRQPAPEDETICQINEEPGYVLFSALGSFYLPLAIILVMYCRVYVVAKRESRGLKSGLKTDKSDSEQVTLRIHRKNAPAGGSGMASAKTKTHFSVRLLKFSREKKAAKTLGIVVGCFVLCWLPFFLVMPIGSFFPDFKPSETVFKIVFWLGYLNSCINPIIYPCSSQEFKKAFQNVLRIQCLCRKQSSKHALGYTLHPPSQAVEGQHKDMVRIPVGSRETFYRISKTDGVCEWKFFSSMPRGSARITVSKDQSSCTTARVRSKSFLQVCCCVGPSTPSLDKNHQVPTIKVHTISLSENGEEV
Protocol: as §1, §2
α1a Human Adrenergic Receptor: The entire coding region of α1a (1401 bp), including 400 base pairs of 5' untranslated sequence (5' UT) and 200 bp of 3' untranslated sequence (3' UT), was cloned into the KpnI site of the polylinker-modified pCEXV-3-derived eukaryotic expression vector, EXJ.RH. The construct involved ligating three partial overlapping fragments: a 5' 0.6 kb HincII genomic clone, a central 1.8 EcoRI hippocampal cDNA clone, and a 3' 0.6Kb PstI genomic clone. The hippocampal cDNA fragment overlaps with the 5' and 3' genomic clones so that the HincII and PstI sites at the 5' and 3' ends of the cDNA clone, respectively, were utilized for ligation. This full-length clone was cloned into the KpnI site of the expression vector, using the 5' and 3' KpnI sites of the fragment, derived from vector (i.e., pBluescript) and 3'-untranslated sequences, respectively. Stable cell lines were selected as described above. The stable cell line expressing the human α1a receptor used herein was designated L-α1C (old nomenclature) and was deposited with the American Type Culture Collection, 12301 Parklawn Drive, Rockville, Md. 20852, U.S.A. under the provisions of the Budapest Treaty for the International Recognition of the Deposit of Microorganisms for the Purposes of Patent Procedure. The cell line expressing the human α1a receptor was accorded Accession No. CR 11140, on Sep. 25, 1992.
as §3, §4, §5, §6

SMILES | Ki (human α1b receptor) [nM] | Ki (human α1a receptor) [nM]
COC(=O)c1[nH]c(=O)n(CCCCCN2CCC(C(=O)OC)(c3ccccc3)CC2)c1-c1ccc(F)c(F)c1 [Compound 1, 1-(5-(4-Methoxycarbonyl-4-phenylpiperidin-1-yl)pent-1-yl)-4-methoxycarbonyl-5-(3,4-difluorophenyl)-2,3-dihydro-2(1H)-imidazolone] | 309 | 1.8
COC(=O)c1[nH]c(=O)n(CCCCCN2CCC(C#N)(c3ccccc3)CC2)c1-c1ccc(F)c(F)c1 [Compound 2, 5-(3,4-Difluorophenyl)-2,3-dihydro-4-methoxycarbonyl-1-(5-(4-cyano-4-phenylpiperidin-1-yl)pent-1-yl)-2(1H)-imidazolone] | 347 | 4.1
COC(=O)c1[nH]c(=O)n(CCCCCN2CCC(O)(c3ccccc3)CC2)c1-c1ccc(F)c(F)c1 [Compound 3, 5-(3,4-Difluorophenyl)-2,3-dihydro-4-methoxycarbonyl-1-(5-(4-hydroxy-4-phenylpiperidin-1-yl)pent-1-yl)-2(1H)-imidazolone] | 1580 | 21.1
COC(=O)c1[nH]c(=O)n(CCCCCN2CCN(c3ccccc3C(N)=O)CC2)c1-c1cc(F)c(F)c(F)c1 [Compound 4, 1-(5-(4-(2-Aminocarbonylphenyl)piperazin-1-yl)pent-1-yl)-5-(3,4,5-trifluorophenyl)-2,3-dihydro-4-methoxycarbonyl-2(1H)-imidazolone] | 159 | 1.5
COC(=O)c1ccccc1N1CCN(CCCCCn2c(-c3cc(F)c(F)c(F)c3)c(C(=O)OC)[nH]c2=O)CC1 [Compound 5, 5-(3,4,5-Trifluorophenyl)-2,3-dihydro-4-methoxycarbonyl-1-(5-(4-(2-methoxycarbonylphenyl)piperazin-1-yl)pent-1-yl)-2(1H)-imidazolone] | 11.7 | 0.1
CCOC(=O)c1[nH]c(=O)n(CCCCCN2CCN(c3ccccc3C(N)=O)CC2)c1-c1ccc(F)c(F)c1 [Compound 6, 1-(5-(4-(2-Aminocarbonylphenyl)piperazin-1-yl)pent-1-yl)-4-ethoxycarbonyl-5-(3,4-difluorophenyl)-2,3-dihydro-2(1H)-imidazolone] | 110 | 1.4
COC(=O)c1[nH]c(=O)n(CCCCCN2CCN(c3ccccc3C(N)=O)CC2)c1-c1cc(F)c(F)cc1F [Compound 7, 1-(5-(4-(2-Aminocarbonylphenyl)piperazin-1-yl)pent-1-yl)-5-(2,4,5-trifluorophenyl)-2,3-dihydro-4-methoxylcarboxy-2(1H)-imidazolone] | 111 | 1.2
COC(=O)c1[nH]c(=O)n(CCCCCN2CCC(C(=O)OC)(c3ccccc3)CC2)c1Cc1ccc(F)c(F)c1 [Compound 37, 5-(3,4-Difluorobenzyl)-2,3-dihydro-4-methoxycarbonyl-1-(5-(4-methoxycarbonyl-4-phenylpiperidin-1-yl)pent-1-yl)-2(1H) -imidazolone] | 558 | 4.5
